Among the data in patent publication US20240246937A1 (MERCK SHARP & DOHME LLC, priority 2021, published 2024) are EC50 values, retold here.

The assay addresses recombinant IL4I1 (Homo sapiens (Human), UniProt Q96RQ9). Description: IL4I1 Enzymatic Assay (Amplex Red/HRP coupled fluorescence detection of H2O2). To be noted: 240 min; recombinant IL4I1, four-hour pre-incubation with compound. It counts as biochemical. The protocol: Interleukin 4 inducible protein 1 (IL4I1) is an L-amino oxidase that catalyzes the oxidation of aromatic residues (Phe, Trp and Tyr): L-amino acid+H2O+O2→2-oxo acid+NH3+H2O2. Equal molar of H2O2 and the corresponding alpha-ketoacid are produced when IL4I1 and substrate are added. In this assay, the hydrogen peroxide generated by IL4I1 is then detected through a coupled reaction with Amplex® Red (10-acetyl-3,7-dihydroxyphenoxazine) and horseradish peroxidase (HRP) to produce resorufin product that could be detected in the form of fluorescence signals. The assessment of the inhibitory effect of small molecules (EC50) on IL4I1 is measured by the effectiveness of the compounds to inhibit the production of H2O2.
Using this assay, the potency (EC50) of each compound was determined from a ten-point (1:3 serial dilution) titration curve using the following outlined procedure. To each well of a black flat-bottom Greiner (Cat #781076) 384 well-plate, 25 nL of compound (0.1% DMSO in final assay volume of 25 μL) was dispensed, followed by the addition of 12.5 μL of 1× assay buffer (50 mM Hepes 7.0 and 0.005% Tween20 (Sigma, Cat #P8341; low peroxide grade)) containing 2 nM of recombinant IL4I1 (R&D Systems, Cat #5684-AO-020). Plates were placed in an ambient temperature humidified chamber for a four-hour pre-incubation with compound. Subsequently, each reaction was initiated by the addition of 12.5 μL 1× assay buffer containing 2 mM of each aromatic amino acids (Phe/Tyr/Trp), 0.1 mM Amplex Red and 2 U/mL of HRP. The final reaction in each well of 25 μL consisted of 1 nM of IL4I1, 1 mM of each residues (Phe, Tyr and Trp), 0.05 mM Amplex Red and 1 U/mL of HRP. It should be noted that the concentrations of Amplex Red and HRP used here were in excess such that the conversion of H2O2 to resorufin product occurred instantaneously and was non-rate limiting. Reactions were allowed to proceed for 120 minutes followed by fluorescence readout on a Spectramax with the following set parameters: 544 nm excitation/590 nm emission, 570 nm cutoff (EnVision is an alternative reader). Dose-response curves were generated by plotting percent effect (% product conversion; Y-axis) vs. Log10 compound concentrations (X-axis). EC50 values were calculated using a non-linear regression, four-parameters sigmoidal dose-response model and are shown in Potency Table 1.

Sequence of recombinant IL4I1 (Q96RQ9 22-567): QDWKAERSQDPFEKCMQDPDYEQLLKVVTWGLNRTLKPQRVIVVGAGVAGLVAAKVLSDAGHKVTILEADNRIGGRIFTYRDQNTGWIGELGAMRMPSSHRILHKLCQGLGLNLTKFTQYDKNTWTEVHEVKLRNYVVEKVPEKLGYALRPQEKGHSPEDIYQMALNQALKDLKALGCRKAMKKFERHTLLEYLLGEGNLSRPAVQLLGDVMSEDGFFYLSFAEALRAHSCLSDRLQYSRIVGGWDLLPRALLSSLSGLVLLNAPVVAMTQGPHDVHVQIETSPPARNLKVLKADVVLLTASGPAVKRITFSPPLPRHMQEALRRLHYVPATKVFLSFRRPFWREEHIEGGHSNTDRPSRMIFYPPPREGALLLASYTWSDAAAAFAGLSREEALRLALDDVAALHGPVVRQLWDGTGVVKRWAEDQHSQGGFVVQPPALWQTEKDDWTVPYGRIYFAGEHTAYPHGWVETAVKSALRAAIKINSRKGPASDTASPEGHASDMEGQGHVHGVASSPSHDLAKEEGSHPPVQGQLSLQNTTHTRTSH

Consider `CC(c1ccc(-c2ccccc2)nc1)N1CCN(C2CCCC2)C(=O)C1=O` (single isomer, unassigned) [Example 99, (R or S)-1-cyclopentyl-4-(1-(6-phenylpyridin-3-yl)ethyl)piperazine-2,3-dione], for which the EC50 is 12 nM.
In the case of `CC(c1ncc(-c2ccccc2)cn1)N1CCN(C2CCCC2)C(=O)C1=O` (single isomer, unassigned) [Example 133, (R or S)-1-cyclopentyl-4-(1-(5-phenylpyrimidin-2-yl)ethyl)piperazine-2,3-dione], the half-maximal effective concentration (EC50) worked out at 22 nM.
To `CC(c1ncc(-c2ccccc2)cn1)N1CCN(C2CCC2)C(=O)C1=O` (single isomer, unassigned) [Example 134, (R or S)-1-cyclobutyl-4-(1-(5-phenylpyrimidin-2-yl)ethyl)piperazine-2,3-dione] belongs 40 nM.
Then `O=C1C(=O)N2CCCCC2CN1Cc1nnc(-c2ccccc2)s1` (single isomer, unassigned) [Example 180, (R or S)-2-((5-phenyl-1,3,4-thiadiazol-2-yl)methyl)hexahydro-2H-pyrido[1,2-a]pyrazine-3,4-dione], with 97 nM; and `O=C1C(=O)N2CCCCC2CN1Cc1nnc(-c2ccccc2)s1` (single isomer, unassigned) [Example 182, (R or S)-2-((5-phenyl-1,3,4-thiadiazol-2-yl)methyl)hexahydro-2H-pyrido[1,2-a]pyrazine-3,4-dione], with 14 nM; and `CC1CN(Cc2ncc(-c3ccccc3)cn2)C(=O)C(=O)N1C1CCCC1` (single isomer, unassigned) [Example 341, (R or S)-4-cyclopentyl-5-methyl-1-((5-phenylpyrimidin-2-yl)methyl)piperazine-2,3-dione], with 19 nM.
Then `CC1CCC(N2CCN(Cc3ncc(-c4ccccc4)cn3)C(=O)C2=O)C1` (single isomer, unassigned) [Example 344, (R or S, R or S)-1-(3-methylcyclopentyl)-4-((5-phenylpyrimidin-2-yl)methyl)piperazine-2,3-dione], with 49 nM; and `O=C1C(=O)N(C2CCC2)[C@H]2CCC[C@@H]2N1Cc1ccc(-c2ccccc2)nn1` (single isomer, unassigned) [Example 435A, (S,S or R,R)-1-cyclobutyl-4-((6-phenylpyridazin-3-yl)methyl)hexahydro-1H-cyclopenta[b]pyrazine-2,3-dione], with 85 nM; and `O=C1C(=O)N(C2CCC2)C2CCCC2N1Cc1ccc(-c2ccccc2)nn1` (single isomer, unassigned) [Example 435B, (S,R or S,R)-1-cyclobutyl-4-((6-phenylpyridazin-3-yl)methyl)hexahydro-1H-cyclopenta[b]pyrazine-2,3-dione], with 76 nM.
As for `CC1CN(C2CCC2)C(=O)C(=O)N1Cc1nnc(-c2ccccc2)s1` (single isomer, unassigned) [Example 437, (R or S)-1-cyclobutyl-5-methyl-4-((5-phenyl-1,3,4-thiadiazol-2-yl)methyl)piperazine-2,3-dione], the EC50 was 34 nM.
Then `O=C1C(=O)N(C2CC[C@H](O)C2)CCN1Cc1nnc(-c2ccccc2)s1` (single isomer, unassigned) [Example 438, (R,S or S,R)-1-(3-hydroxycyclopentyl)-4-((5-phenyl-1,3,4-thiadiazol-2-yl)methyl)piperazine-2,3-dione], with 40 nM; and `O=C1C(=O)N([C@@H]2CC[C@@H](c3ccccc3)C2)CCN1Cc1nnc(-c2ccccc2)s1` (single isomer, unassigned) [Example 440A, (R or S, R or S)-1-((5-phenyl-1,3,4-thiadiazol-2-yl)methyl)-4-(3-phenylcyclopentyl)piperazine-2,3-dione], with 5 nM.
To `O=C1C(=O)N([C@@H]2CC[C@@H](c3ccccc3)C2)CCN1Cc1nnc(-c2ccccc2)s1` (single isomer, unassigned) [Example 440B, (R or S, R or S)-1-((5-phenyl-1,3,4-thiadiazol-2-yl)methyl)-4-(3-phenylcyclopentyl)piperazine-2,3-dione] belongs 6 nM.
To `O=C1C(=O)N([C@@H]2CC[C@@H](c3ccccc3)C2)CCN1Cc1nnc(-c2ccccc2)s1` (single isomer, unassigned) [Example 440C, (R or S, R or S)-1-((5-phenyl-1,3,4-thiadiazol-2-yl)methyl)-4-(3-phenylcyclopentyl)piperazine-2,3-dione] belongs 10 nM; to `O=C1C(=O)N([C@@H]2CC[C@@H](c3ccccc3)C2)CCN1Cc1nnc(-c2ccccc2)s1` (single isomer, unassigned) [Example 440D, (R or S, R or S)-1-((5-phenyl-1,3,4-thiadiazol-2-yl)methyl)-4-(3-phenylcyclopentyl)piperazine-2,3-dione], 8 nM; to `O=C1C(=O)N(C2CCC2)CCN1Cc1ccc(-c2ccccc2F)nn1` [Example 1, 1-cyclobutyl-4-((6-(2-fluorophenyl)pyridazin-3-yl)methyl)piperazine-2,3-dione], 10 nM.
`O=C1C(=O)N(C23CC(C2)C3)CCN1Cc1nnc(-c2cccc(F)c2)s1` [Example 2, 1-(bicyclo[1.1.1]pentan-1-yl)-4-((5-(3-fluorophenyl)-1,3,4-thiadiazol-2-yl)methyl)piperazine-2,3-dione]: the half-maximal effective concentration (EC50) is 9 nM.
Then `O=C1C(=O)N(C2CCCC2)CCN1Cc1ccc(-c2ccccc2)nn1` [Example 3, 1-cyclopentyl-4-((6-phenylpyridazin-3-yl)methyl)piperazine-2,3-dione], with 12 nM; and `O=C1C(=O)N(C2CCCC2)CCN1Cc1ncc(-c2ccccc2)cn1` [Example 4, 1-cyclopentyl-4-((5-phenylpyrimidin-2-yl)methyl)piperazine-2,3-dione], with 19 nM.
Then `O=C1C(=O)N(C2CCCC2)CCN1Cc1ncc(-c2cncs2)cn1` [Example 5, 1-cyclopentyl-4-((5-(thiazol-5-yl)pyrimidin-2-yl)methyl)piperazine-2,3-dione], with 50 nM.
Then `O=C1C(=O)N(C2CCCC2)CCN1Cc1ccc(-c2cnco2)nn1` [Example 6, 1-cyclopentyl-4-((6-(oxazol-5-yl)pyridazin-3-yl)methyl)piperazine-2,3-dione], with 43 nM.
In the case of `O=C1C(=O)N(C2CC(c3ccccc3)C2)CCN1Cc1ccc(-c2ccccc2)nn1` (stereo not drawn) [Example 7, 1-(3-phenylcyclobutyl)-4-((6-phenylpyridazin-3-yl)methyl)piperazine-2,3-dione], the concentration for a half-maximal effect (EC50) came to 9 nM.
Then `O=C1C(=O)N(C2CCCC2)CCN1Cc1nnc(-c2cccc(F)c2)s1` [Example 8, 1-cyclopentyl-4-((5-(3-fluorophenyl)-1,3,4-thiadiazol-2-yl)methyl)piperazine-2,3-dione], with 7 nM.
To `O=C1C(=O)N(C2CCCC2)CCN1Cc1ccc(-c2ccccc2F)nn1` [Example 9, 1-cyclopentyl-4-((6-(2-fluorophenyl)pyridazin-3-yl)methyl)piperazine-2,3-dione] belongs 15 nM.
Turning to `O=C1C(=O)N(C2CCCC2)CCN1Cc1ncc(-c2cncs2)cc1F` [Example 10, 1-cyclopentyl-4-((3-fluoro-5-(thiazol-5-yl)pyridin-2-yl)methyl)piperazine-2,3-dione], the EC50 amounted to 21 nM.
`O=C1C(=O)N(C2CCCC2)CCN1Cc1ccc(-c2cncs2)nn1` [Example 11, 1-cyclopentyl-4-((6-(thiazol-5-yl)pyridazin-3-yl)methyl)piperazine-2,3-dione]: the EC50 amounted to 16 nM.
To `O=C1C(=O)N(C2CCC2)CCN1Cc1ccc(-c2ccccc2)nn1` [Example 12, 1-cyclobutyl-4-((6-phenylpyridazin-3-yl)methyl)piperazine-2,3-dione] belongs 8 nM; to `O=C1C(=O)N(C2CCCC2)CCN1Cc1nnc(-c2ccccc2F)s1` [Example 13, 1-cyclopentyl-4-((5-(2-fluorophenyl)-1,3,4-thiadiazol-2-yl)methyl)piperazine-2,3-dione], 8 nM; to `O=C1C(=O)N(C2CCCC2)CCN1Cc1ccc(-c2cccc(F)c2)nn1` [Example 14, 1-cyclopentyl-4-((6-(3-fluorophenyl)pyridazin-3-yl)methyl)piperazine-2,3-dione], 6 nM.
Turning to `O=C1C(=O)N(C2CCCC2)CCN1Cc1ccc(-c2cn[nH]c2)nn1` [Example 15, 1-((6-(1H-pyrazol-4-yl)pyridazin-3-yl)methyl)-4-cyclopentylpiperazine-2,3-dione], the EC50 is 44 nM.

The term EC50 denotes the midpoint of the concentration-response curve.
